Here are results for 2 compounds from patent US9949961B2, “Agent for the prophylaxis and/or treatment of neoplastic diseases” (priority 2013, dated 2018).

Data set [1] concerns neuroblastoma N2A cell culture. Conditions: cited from earlier work.
Data set [2] has as its system Lewis carcinoma. Put plainly: Anti-neoplastic and anti-metastatic activity in mice with Lewis carcinoma implanted to the paw. Format: in vivo, male mice F1 (CBA×C57B1/6). Conditions: for Number of lung metastases: day 21 after tumor implantation; for Growth of Lewis carcinoma in mice: 5 and 25 mg/kg, inhibition is dose-related. On the procedure: The efficacy of anti-neoplastic (anti-proliferative) and anti-metastatic properties of products 1 and 2 was shown in the experiment on male mice F1 (CBA×CS7B1/6) with Lewis carcinoma implanted to the paw following intragastric administration in two doses: 5 mg/kg and 25 mg/kg for 3 weeks immediately after implantation and within 1 week prior tumor transplantation.
Test system. To examine anti-neoplastic (anti-proliferative) and anti-metastatic properties of products 1 and 2, 120 hybrid male mice of the first generation CBA×[…] were used: each group of 10-12 mice. Lewis carcinoma was implanted to a hind paw, in the amount ˜10^6 cells (˜0.2 cm^3) Doses and dosing schemes for products 1 and 2. Route of the product administration—per os provided addition of products 1 and 2 to drinking water which was given to animals. Products 1 and 2 were added to drinking water by two schemes: within 3 weeks immediately after implantation and within 4 weeks with the dosing started prior implantation.
Anti-neoplastic (anti-proliferative) and anti-metastatic activity of products 1 and 2 was assessed based on change of tumor volume and number of lung metastases. The number of metastases was assessed on day 21 after tumor implantation (day 28 after the administration of products 1 and 2 by the 1-st scheme). For that, lungs were withdrawn in animals decapitated under anesthesia and transferred to Bouin's fluid. Metastases were visually counted. The volume of neoplasm was assessed by ellipsoid equation (1). […]
[formula] where: d1, d2, d3—mutually perpendicular tumor sizes.

In data set [3] the test system is hepatic tumors induced by DENA. Put plainly: Preventive effect on hepatic neoplasms induced by N-diethyl nitrosamine (DENA) in rats. The data set is classed as in vivo, male Wistar rats. Conditions: for Preventive effect in relation to hepatic tumors: 25 mg/kg a day, DENA carcinogenesis in rats; for Weight of rats / Number of animals with induced tumors / Number of hepatic tumors: 25 mg/kg/day in drinking water, DENA 30 mg/kg/week i.p.; for Weight of rats: from 3 weeks prior to DENA and then 2.5 months; for Number of animals with induced tumors: 16 animals in group; for Number of hepatic tumors: counted visually on liver surface. Here is the method:
The efficacy of preventive effects of Products 1 and 2 in relation to hepatic neoplasms was shown in the experiment on male Wistar rats which were intraperitoneally administered with chemical carcinogen-N-diethyl nitrosamine (DENA) (Nitrosodiethylamin (N—N)). The nature of the invention is explained with the execution example.
To solve the task, 3 groups of male Wistar rats weighing 150-200 g were formed, 16 in each. Rats of the control group were administered intraperitoneally with DENA in dose 30 mg/kg/week. The dosage was administered in 2 doses: Monday and Thursday. The animals of test groups were similarly administered with DENA. Rats of test groups took drinking water in addition to Products 1 and 2 assuming that they took 25 mg/kg of body weight/day with water. The animals started taking the products 3 weeks prior administration of N-diethyl nitrosamine to develop protective background in animal body and subsequently for 2.5 months.
During the experiment, weight of rats was controlled. After autopsy of animals, liver was weighted, tumors were visually counted on its surface and photographed.

[4] abbreviates: 5 mg/kg per os in drinking water, after implantation (scheme 2), day 1.
Where [5] appears, read: 5 mg/kg per os in drinking water, after implantation (scheme 2), day 7.
Setting [6] is: 5 mg/kg per os in drinking water, after implantation (scheme 2), day 15.
[7] abbreviates: 5 mg/kg per os in drinking water, prior and after implantation (scheme 1), day 1.
Setting [8] is: 5 mg/kg per os in drinking water, prior and after implantation (scheme 1), day 7.
Where [9] appears, read: 5 mg/kg per os in drinking water, prior and after implantation (scheme 1), day 15.
The mark [10] stands for this setting: 5 mg/kg, after implantation (scheme 2).
The mark [11] stands for this setting: 5 mg/kg, prior and after implantation (scheme 1).
Setting [12] is: 25 mg/kg per os in drinking water, after implantation (scheme 2), day 1.
Setting [13] is: 25 mg/kg per os in drinking water, after implantation (scheme 2), day 7.
[14] abbreviates: 25 mg/kg per os in drinking water, after implantation (scheme 2), day 15.
Setting [15] is: 25 mg/kg per os in drinking water, prior and after implantation (scheme 1), day 1.
The mark [16] stands for this setting: 25 mg/kg per os in drinking water, prior and after implantation (scheme 1), day 7.
Setting [17] is: 25 mg/kg per os in drinking water, prior and after implantation (scheme 1), day 15.
[18] abbreviates: 25 mg/kg, after implantation (scheme 2).
The mark [19] stands for this setting: 25 mg/kg, prior and after implantation (scheme 1).

As for `O=C1CSC(=S)N1CCc1ccccc1` [Product 1], the Anti-proliferative effect entry in data set [1] was “anti-proliferative effect”. Also, the Tumor volume in data set [2] (setting [4]) was 52 ± 17 mm^3; in data set [2] (setting [5]), 708 ± 86 mm^3; in data set [2] (setting [6]), 1826 ± 196 (P < 0.05) mm^3; in data set [2] (setting [7]) it was 40 ± 15 mm^3; in data set [2] (setting [8]), 715 ± 103 mm^3; in data set [2] (setting [9]) it was 1597 ± 133 (P < 0.01)^2 mm^3. The Tumor volume in data set [2] (setting [12]) is 60 ± 19 mm^3; in data set [2] (setting [13]), 812 ± 153 mm^3; in data set [2] (setting [14]), 1437 ± 325 (P < 0.01) mm^3; in data set [2] (setting [15]), 101 ± 29 mm^3; in data set [2] (setting [16]), 671 ± 104 mm^3; in data set [2] (setting [17]), 1225 ± 214 (P < 0.01) mm^3. Further, the “Number of lung metastases” value in data set [2] (setting [10]) is 32.8 ± 8.1; in data set [2] (setting [11]), 42.2 ± 7.1; in data set [2] (setting [18]), 20.3 ± 4.2 (P < 0.01)^2; in data set [2] (setting [19]) it was 33.1 ± 9.1. For the same compound, the “Growth of Lewis carcinoma in mice” value in data set [2] is listed as “able to inhibit growth”. Besides, in data set [3], the “Preventive effect in relation to hepatic tumors” value is recorded as “have preventive effect”. The Weight of rats in data set [3] amounted to 146.4 ± 3.57 g. Moreover, in data set [3], the “Number of animals with induced tumors” value is 15. In addition, the “Number of hepatic tumors” value in data set [3] came to 15.1 ± 2.88.
For `O=C1CSC(=S)N1CCc1ccncc1` [Product 2], the Tumor volume in data set [2] (setting [4]) was 49 ± 15 mm^3; in data set [2] (setting [5]) it was 702 ± 92 mm^3; in data set [2] (setting [6]), 1806 ± 203 (P < 0.05) mm^3; in data set [2] (setting [7]), 39 ± 13 mm^3; in data set [2] (setting [8]) it was 706 ± 99 mm^3; in data set [2] (setting [9]), 1588 ± 127 (P < 0.01)^3 mm^3. The Tumor volume in data set [2] (setting [12]) is 70 ± 14 mm^3; in data set [2] (setting [13]) it was 827 ± 140 mm^3; in data set [2] (setting [14]), 1459 ± 299 (P < 0.01) mm^3; in data set [2] (setting [15]) it was 98 ± 95 mm^3; in data set [2] (setting [16]) it was 650 ± 97 mm^3; in data set [2] (setting [17]), 1204 ± 226 (P < 0.01) mm^3. For the same compound, the “Number of lung metastases” value in data set [2] (setting [10]) is given as 33.3 ± 7.8; in data set [2] (setting [11]), 43.4 ± 6.5; in data set [2] (setting [18]), 19.0 ± 5.1 (P < 0.01)^3; in data set [2] (setting [19]), 34.2 ± 8.9. Further, the “Growth of Lewis carcinoma in mice” value in data set [2] was “able to inhibit growth”. The “Preventive effect in relation to hepatic tumors” value in data set [3] is given as “have preventive effect”. The compound also yielded a Weight of rats in data set [3] of 145.9 ± 1.26 g. Further, the “Number of animals with induced tumors” value in data set [3] is recorded as 15. Also, the “Number of hepatic tumors” value in data set [3] worked out at 16.6 ± 3.12.
